{"source": "patent US20110021530A1", "about": "“PYRIDAZINE DERIVATIVES AND THEIR USE AS THERAPEUTIC AGENTS IN THE TREATMENT OF SKIN DISORDERS” (XENON PHARMACEUTICALS INC., priority 2008, published 2011)", "key": {"[1]": {"assay": "Solubility in co-solvents", "assay_type": "physicochemical", "conditions": "compared with other co-solvents"}, "[2]": {"system": "sebaceous glands", "assay": "Effect of topically administered LCF369 on the sebaceous glands of NMRI mice (histomorphometry)", "assay_type": "in vivo, female Crl:NMRI mice", "conditions": "for atrophogenic effect (recovery): 1% LCF369 7-day treatment", "procedure": "LCF369 is prepared either in a solution of ethanol/propylene glycol (3/7, v/v) or in topical formulations at 1.0, 0.5 or 0.1% for testing in female Crl:NMRI mice. In general, shaved application sites of approximately 2.5 cm^2 on the back of mice are treated twice daily (once on weekends or at study termination) with 50 μl of the LCF369 preparations. To prevent the animals from potential oral uptake of the epicutaneously applied compounds, they are fitted with ruffs and housed individually. After the last application, the animals are euthanised; the treated sites dissected and prepared for histological sections. Hematoxilin/eosin (HE)-stained 3 μm-thick sections are prepared from formalin-fixed, paraffin-embedded tissue. From each animal, one HE-stained section per site is histomorphometrically examined. The entire sections of approximately 10 mm length are evaluated microscopically (200×) for sebaceous glands. The mean size and mean number (per mm^2 dermis) of sectioned alveolar units of the sebaceous glands are determined in a coded fashion with an image analyzer (Axiovision, Zeiss). For statistical analysis, morphometric data are analyzed with a T-test or Mann-Whitney rank sum test. Frozen tissue sections (5 μm) are used for oil red O (lipid) staining.\nGroups of 5 mice are treated with 50 μl of 1% or 0.1% LCF369 twice daily (except on weekends, when the animals are treated once daily and on study termination) for 8 days (i.e. 14 applications in total). Four control animals are treated similarly with the vehicle alone. In life, the animals are observed for clinical signs and macroscopic changes of the application sites. One day after the last application, an evaluation is performed. In animals treated with 1.0% LCF369, untreated skin samples distant from the treated sites are also collected in order to assess systemic activity due to percutaneous absorption of LCF369.\nGroups of 4 mice are treated with 1.0% LCF369 twice daily for 2, 4, 6 and 8 days (i.e. up to 16 applications). Control groups remain untreated or are treated with the vehicle alone twice daily for 8 days.\nLCF369 is tested at 1.0%, 0.5% and 0.1%, groups of 6 mice are treated twice daily for 7 consecutive days. Evaluation is performed on the day following the 14th application.\nA 7-day b.i.d. (twice daily) treatment schedule (except on week ends when the animals were treated once daily) with 1.0% LCF369 is applied to groups of 7 mice which are evaluated on days 8 (one day after the 14th application), 24 and 41. For comparison, skin sections from animals treated with vehicle are examined on day 8 and skin samples from untreated animals of the same delivery were examined in parallel on days 8 and 41.\nThree different formulations containing 0.5% LCF369 are tested: i) emulsion gel with the penetration enhancer SEPA-9™ (batch 92.66.01-ra), ii) emulsion gel without a penetration enhancer (batch 9450-05-Ra), and iii) a formulation containing particulate compound (“follicular targeting formulation”). They are evaluated after 9 or 13 applications."}, "[3]": {"conditions": "0.1% LCF369 topical, 8 days (14 applications), treated sites (locally), day 9, mean (SD), 5 animals"}, "[4]": {"conditions": "0.5% LCF369 emulsion gel containing SEPA-9, 9 applications, mean (SD), 3 animals"}, "[5]": {"conditions": "0.5% LCF369 emulsion gel containing SEPA-9, 13 applications, mean (SD), 3 animals"}, "[6]": {"conditions": "0.5% LCF369 twice daily 7 days, vs vehicle-treated controls"}, "[7]": {"conditions": "1.0% LCF369 topical, 8 days (14 applications), treated sites (locally), day 9, mean (SD), 5 animals"}, "[8]": {"conditions": "1.0% LCF369 topical, 8 days, sites distant from the treated sites (distantly), day 9, mean (SD), 5 animals"}, "[9]": {"conditions": "1% LCF369 twice daily 7 days, vs vehicle-treated controls"}, "[10]": {"conditions": "1.0% LCF369 twice daily for 8 days as printed, vs vehicle, time point of this value not stated"}, "[11]": {"conditions": "1.0% LCF369 twice daily, 2 days of treatment, one day after last application, 4 animals"}, "[12]": {"conditions": "1.0% LCF369 twice daily, 4 days of treatment"}, "[13]": {"conditions": "1.0% LCF369 twice daily, 6 days of treatment"}, "[14]": {"conditions": "1.0% LCF369 twice daily, 8 days of treatment"}, "[15]": {"conditions": "1.0% LCF369 twice daily, after 4 days, vs vehicle"}, "[16]": {"conditions": "1.0% LCF369 twice daily, after 6 days, vs vehicle"}, "[17]": {"conditions": "1.0% LCF369 twice daily, after 8 days, vs vehicle"}, "[18]": {"conditions": "LCF 1%, 7-day b.i.d. treatment, evaluation day 8 (one day after last application), 7 animals"}, "[19]": {"conditions": "LCF 1%, 7-day treatment, evaluation day 24 (17 days after last application)"}, "[20]": {"conditions": "LCF 1%, 7-day treatment, evaluation day 41 (34 days after last application)"}, "[21]": {"conditions": "LCF369 0.1% (w/v) twice daily for 7 days"}, "[22]": {"conditions": "LCF369 0.5% (w/v) twice daily for 7 days"}, "[23]": {"conditions": "LCF369 1.0% (w/v) twice daily for 7 days, one day after last application, 6 animals"}, "[24]": {"conditions": "LCF369-treated vs vehicle-treated skin"}, "[25]": {"conditions": "one day after the 7 days-treatment period with 1% LCF369"}}, "note": "Marks after values point to notes of the source that are not given here."}
{"smiles": "O=C(NCCC1CC1)c1ccc(N2CCN(C(=O)c3cc(F)ccc3C(F)(F)F)CC2)nn1", "note": "[LCF369, 6-[4-(5-Fluoro-2-trifluoromethylbenzoyl)piperazin-1-yl]pyridazine-3-carboxylic acid (2-cyclopropylethyl)amide]", "values": [{"measurement": "solubility in benzyl alcohol", "setting": "[1]", "value": "surprisingly good solubility"}, {"measurement": "atrophogenic effect", "setting": "[2]; 0.1% LCF369, 8 days", "value": "little or no atrophogenic effects"}, {"measurement": "Number of sebaceous glandular units", "setting": "[2]; [3]", "value": "34.3 (4.1) per mm^2 dermis"}, {"measurement": "Size of sebaceous glandular units", "setting": "[2]; [3]", "value": "1090 (200) μm^2"}, {"measurement": "Number of sebaceous glandular units", "setting": "[2]; [4]", "value": "10.6 (5.89)*"}, {"measurement": "Size (μm^2) of sebaceous glandular units", "setting": "[2]; [4]", "value": "745.8 (339.3)*** μm^2"}, {"measurement": "Number of sebaceous glandular units", "setting": "[2]; [5]", "value": "10.1 (3.48)*"}, {"measurement": "Size (μm^2) of sebaceous glandular units", "setting": "[2]; [5]", "value": "946.1 (134.0)*** μm^2"}, {"measurement": "hyper/parakeratosis and acanthosis in skin sections", "setting": "[2]; 0.5% LCF369 formulation containing SEPA-9 vs placebo-treated (vehicle-treated) samples", "value": "hyper/parakeratosis and acanthosis is more pronounced"}, {"measurement": "effect on sebaceous glands", "setting": "[2]; 0.5% LCF369 formulation containing penetration enhancer SEPA-9, 9 and 13 applications", "value": "significant atrophy of sebaceous glands"}, {"measurement": "reduction of mean size of sebaceous glands", "setting": "[2]; [6]", "value": 48, "unit": "%"}, {"measurement": "reduction of numbers of sebaceous glands per mm^2 dermis", "setting": "[2]; [6]", "value": 38, "unit": "%"}, {"measurement": "atrophogenic effect (recovery)", "setting": "[2]; day 24", "value": "substantially reduced"}, {"measurement": "atrophogenic effect (recovery)", "setting": "[2]; day 41", "value": "almost completely absent"}, {"measurement": "differences in numbers and sizes of sebaceous glands at sites distant from the LCF369 treatments", "setting": "[2]; 1.0% LCF369, 8 days, distant sites", "value": "no significant differences"}, {"measurement": "reduction of sebaceous glands in numbers, factor", "setting": "[2]; 1.0% LCF369, 8 days, vs vehicle, p<0.001", "value": "about 2.5"}, {"measurement": "reduction of sebaceous glands in sizes", "setting": "[2]; 1.0% LCF369, 8 days, vs vehicle, p<0.01", "value": "about 1.9 fold"}, {"measurement": "Number of sebaceous glandular units", "setting": "[2]; [7]", "value": "13.7 (8.2) *** per mm^2 dermis"}, {"measurement": "Size of sebaceous glandular units", "setting": "[2]; [7]", "value": "571 (200) ** μm^2"}, {"measurement": "Number of sebaceous glandular units", "setting": "[2]; [8]", "value": "28.4 (6.0) per mm^2 dermis"}, {"measurement": "Size of sebaceous glandular units", "setting": "[2]; [8]", "value": "1090 (250) μm^2"}, {"measurement": "reduction of numbers of sebaceous glands", "setting": "[2]; [9]", "value": 57, "unit": "%"}, {"measurement": "reduction of size of sebaceous glands", "setting": "[2]; [9]", "value": 60, "unit": "%"}, {"measurement": "treatment period after which the effect is statistically significant", "setting": "[2]; 1.0% LCF369 twice daily (8 applications)", "value": 4, "unit": "days"}, {"measurement": "progressive decrease in the numbers of sebaceous glands", "setting": "[2]; [10]", "value": 12, "unit": "%"}, {"measurement": "progressive decrease in the size of sebaceous glands", "setting": "[2]; [10]", "value": 19, "unit": "%"}, {"measurement": "Number of sebaceous glandular units", "setting": "[2]; [11]", "value": 24.8, "unit": "per mm^2 dermis"}, {"measurement": "Size (μm^2) of sebaceous glandular units", "setting": "[2]; [11]", "value": 1095, "unit": "μm^2"}, {"measurement": "Number of sebaceous glandular units", "setting": "[2]; [12]", "value": 18.0, "unit": "per mm^2 dermis"}, {"measurement": "Size (μm^2) of sebaceous glandular units", "setting": "[2]; [12]", "value": 875, "unit": "μm^2"}, {"measurement": "Number of sebaceous glandular units", "setting": "[2]; [13]", "value": 12.6, "unit": "per mm^2 dermis"}, {"measurement": "Size (μm^2) of sebaceous glandular units", "setting": "[2]; [13]", "value": 613, "unit": "μm^2"}, {"measurement": "Number of sebaceous glandular units", "setting": "[2]; [14]", "value": 7.0, "unit": "per mm^2 dermis"}, {"measurement": "Size (μm^2) of sebaceous glandular units", "setting": "[2]; [14]", "value": 374, "unit": "μm^2"}, {"measurement": "decrease of mean size of sebaceous glands", "setting": "[2]; [15]", "value": 35, "unit": "%"}, {"measurement": "reduction of numbers of sebaceous glands", "setting": "[2]; [15]", "value": 35, "unit": "%"}, {"measurement": "decrease of mean size of sebaceous glands", "setting": "[2]; [16]", "value": 35, "unit": "%"}, {"measurement": "reduction of numbers of sebaceous glands", "setting": "[2]; [16]", "value": 54, "unit": "%"}, {"measurement": "decrease of mean size of sebaceous glands", "setting": "[2]; [17]", "value": 72, "unit": "%"}, {"measurement": "reduction of numbers of sebaceous glands", "setting": "[2]; [17]", "value": 75, "unit": "%"}, {"measurement": "Number of sebaceous glandular units", "setting": "[2]; [18]", "value": 9.28}, {"measurement": "Size (μm^2) of sebaceous glandular units", "setting": "[2]; [18]", "value": 708, "unit": "μm^2"}, {"measurement": "Number of sebaceous glandular units", "setting": "[2]; [19]", "value": 17.4}, {"measurement": "Size (μm^2) of sebaceous glandular units", "setting": "[2]; [19]", "value": 1154, "unit": "μm^2"}, {"measurement": "Number of sebaceous glandular units", "setting": "[2]; [20]", "value": 21}, {"measurement": "Size (μm^2) of sebaceous glandular units", "setting": "[2]; [20]", "value": 1456, "unit": "μm^2"}, {"measurement": "Number of sebaceous glandular units", "setting": "[2]; [21]", "value": 23.8, "unit": "per mm^2 dermis"}, {"measurement": "Size (μm^2) of sebaceous glandular units", "setting": "[2]; [21]", "value": 1396, "unit": "μm^2"}, {"measurement": "Number of sebaceous glandular units", "setting": "[2]; [22]", "value": 14.5, "unit": "per mm^2 dermis"}, {"measurement": "Size (μm^2) of sebaceous glandular units", "setting": "[2]; [22]", "value": 870, "unit": "μm^2"}, {"measurement": "Number of sebaceous glandular units", "setting": "[2]; [23]", "value": 10.1, "unit": "per mm^2 dermis"}, {"measurement": "Size (μm^2) of sebaceous glandular units", "setting": "[2]; [23]", "value": 675, "unit": "μm^2"}, {"measurement": "histochemical (HE) staining of skin, sebaceous glands (FIG. 2B)", "setting": "[2]; [24]", "value": "fewer and smaller (atrophic) sebaceous glands"}, {"measurement": "oil red O staining, lipids associated with hair shafts (FIG. 3B)", "setting": "[2]; [24]", "value": "significantly reduced lipids associated with hair shafts"}, {"measurement": "minimal statistically significant effective concentration", "setting": "[2]; applied twice daily (50 μL each time) for 7 days", "value": 0.5, "unit": "%"}, {"measurement": "reduction of mean size of sebaceous glands", "setting": "[2]; [25]", "value": 50, "unit": "%"}, {"measurement": "reduction of numbers of sebaceous glands", "setting": "[2]; [25]", "value": 57, "unit": "%"}, {"measurement": "concentration at which efficacy is seen", "setting": "[2]; topical application", "value": "≥ 0.4", "unit": "%"}, {"measurement": "treatment time at which efficacy is seen", "setting": "[2]; topical application", "value": "≥ 4", "unit": "days"}]}
